Test results published in PubChem BioAssay AID1963867 (Molecular Pharmacology Branch, DTP, NCI, 2024).

Tested on: KRAS-mutant PDC tumor spheroid with HUVEC/MSC, viability
Experiment: Anticancer human tumor 327498-153-R-J2-PDC patient-derived uterine carcinosarcoma cell line growth inhibition [KRAS2]
Details: for viability, T/C: stronger effect = lower value
Method in brief: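 KRAS-mutant tumor cells were grown as spheroids with HUVEC endothelial cells and human MSCs as stroma. Targeted agents were tested alone and with KRAS pathway inhibitors. Doses started at or near clinical Cmax, or 10 microM, descending half-log.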

[1] = curve of first compound, second compound 0.0316 µM
[2] = curve of first compound, second compound 0.1 µM
[3] = curve of first compound, second compound 0.316 µM
[4] = curve of first compound, second compound 1 µM
[5] = curve of first compound, second compound 3.16 µM
[6] = second compound 0.0316 µM, first compound 0.0316 µM
[7] = second compound 0.0316 µM, first compound 0.1 µM
[8] = second compound 0.0316 µM, first compound 0.316 µM
[9] = second compound 0.0316 µM, first compound 1 µM
[10] = second compound 0.0316 µM, first compound 3.16 µM
[11] = second compound 0.0316 µM, first compound 10 µM
[12] = second compound 0.1 µM, first compound 0.0316 µM
[13] = second compound 0.1 µM, first compound 0.1 µM
[14] = second compound 0.1 µM, first compound 0.316 µM
[15] = second compound 0.1 µM, first compound 1 µM
[16] = second compound 0.1 µM, first compound 3.16 µM
[17] = second compound 0.1 µM, first compound 10 µM
[18] = second compound 0.316 µM, first compound 0.0316 µM
[19] = second compound 0.316 µM, first compound 0.1 µM
[20] = second compound 0.316 µM, first compound 0.316 µM
[21] = second compound 0.316 µM, first compound 1 µM
[22] = second compound 0.316 µM, first compound 3.16 µM
[23] = second compound 0.316 µM, first compound 10 µM
[24] = second compound 1 µM, first compound 0.0316 µM
[25] = second compound 1 µM, first compound 0.1 µM
[26] = second compound 1 µM, first compound 0.316 µM
[27] = second compound 1 µM, first compound 1 µM
[28] = second compound 1 µM, first compound 3.16 µM
[29] = second compound 1 µM, first compound 10 µM
[30] = second compound 3.16 µM, first compound 0.0316 µM
[31] = second compound 3.16 µM, first compound 0.1 µM
[32] = second compound 3.16 µM, first compound 0.316 µM
[33] = second compound 3.16 µM, first compound 1 µM
[34] = second compound 3.16 µM, first compound 3.16 µM
[35] = second compound 3.16 µM, first compound 10 µM
[36] = curve of first compound, second compound 10 µM
[37] = second compound 10 µM, first compound 0.0316 µM
[38] = second compound 10 µM, first compound 0.1 µM
[39] = second compound 10 µM, first compound 0.316 µM
[40] = second compound 10 µM, first compound 1 µM
[41] = second compound 10 µM, first compound 3.16 µM
[42] = second compound 10 µM, first compound 10 µM
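Note: spheroids exposed to agents for seven days before reading.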
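Throughout, for viability, T/C: 100% = DMSO vehicle wells so lower means fewer viable cells.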

Row | SMILES | IC50 [2] [nM] | IC50 [3] [nM] | IC50 [4] [nM] | IC50 [5] [nM] | viability, T/C [12] [%] | viability, T/C [13] [%] | viability, T/C [14] [%] | viability, T/C [15] [%] | viability, T/C [16] [%] | viability, T/C [18] [%] | viability, T/C [19] [%] | viability, T/C [20] [%] | viability, T/C [21] [%] | viability, T/C [22] [%] | viability, T/C [24] [%] | viability, T/C [25] [%] | viability, T/C [26] [%] | viability, T/C [27] [%] | viability, T/C [28] [%] | viability, T/C [30] [%] | further results
1 | CC(C)NCC(C(=O)N1CCN(c2ncnc3c2C(C)CC3O)CC1)c1ccc(Cl)cc1 (stereo not given) + C=CC(=O)N1CCN(c2nc(OCC3CCCN3C)nc3c2CCN(c2cccc4cccc(C)c24)C3)CC1CC#N | < 31.6 | < 31.6 | < 31.6 | < 31.6 | 48.7 | 32.4 | 22.1 | 15.7 | 12.7 | 42.5 | 29.8 | 18.3 | 13.5 | 12.3 | 34.5 | 25.2 | 15.1 | 12.6 | 9.14 | 0.26 | IC50 [1]: 66.9 nM; viability, T/C [6]: 59.5%; viability, T/C [7]: 44.3%; viability, T/C [8]: 32.8%; viability, T/C [9]: 22.8%; viability, T/C [10]: 15.5%; viability, T/C [11]: 9.69%; viability, T/C [17]: 11.4%; viability, T/C [23]: 7.28%; viability, T/C [29]: 6.92%; viability, T/C [31]: 0.41%; viability, T/C [32]: 0.51%; viability, T/C [33]: 0.15%; viability, T/C [34]: 0.14%; viability, T/C [35]: 0.21%
2 | COc1cc(OC)cc(N(CCNC(C)C)c2ccc3ncc(-c4cnn(C)c4)nc3c2)c1 | – | – | – | – | – | – | – | – | – | – | – | – | – | – | – | – | – | – | – | – | viability, T/C (compound 0.0316 µM): 73.7% [middle of 5 runs]; viability, T/C (compound 0.1 µM): 71.3% [middle of 5 runs]; viability, T/C (compound 10 µM): 0.42% [middle of 5 runs]
3 | CC1COCCN1c1cc(-c2ccnn2C)c2ccnc(-c3ccn[nH]3)c2n1 (stereo not given) + CC1OCC2(CCN(c3cnc(Sc4ccnc(N)c4Cl)c(N)n3)CC2)C1N | 21 | < 10 | < 10 | < 10 | 39 | 8.18 | 6.79 | 8.72 | 6.58 | 21.5 | 8.27 | 5.01 | 7.64 | 4.81 | 14.8 | 7.95 | 4.88 | 4.72 | 4.24 | 12.1 | IC50 [36]: < 10 nM; viability, T/C (second compound 0.1 µM, first compound 0.01 µM): 70%; viability, T/C (second compound 0.316 µM, first compound 0.01 µM): 37.1%; viability, T/C (second compound 1 µM, first compound 0.01 µM): 31.1%; viability, T/C (second compound 3.16 µM, first compound 0.01 µM): 23.2%; viability, T/C [31]: 8.55%; viability, T/C [32]: 5.44%; viability, T/C [33]: 5.2%; viability, T/C [34]: 3.81%; viability, T/C (second compound 10 µM, first compound 0.01 µM): 19.6%; viability, T/C [37]: 13.4%; viability, T/C [38]: 7.85%; viability, T/C [39]: 6.38%; viability, T/C [40]: 5.34%; viability, T/C [41]: 3.63%
4 | CC(C)NCC(C(=O)N1CCN(c2ncnc3c2C(C)CC3O)CC1)c1ccc(Cl)cc1 (stereo not given) + C=CC(=O)N1CCN(c2nc(=O)n(-c3c(C)ccnc3C(C)C)c3nc(-c4c(O)cccc4F)c(F)cc23)C(C)C1 | 41.8 | < 31.6 | < 31.6 | < 31.6 | 54.5 | 36.3 | 22.2 | 15.3 | 11.2 | 46.5 | 32.4 | 15.7 | 13.5 | 11 | 48.2 | 29.6 | 19.9 | 13.5 | 10.4 | 39.5 | IC50 [36]: < 31.6 nM; viability, T/C [17]: 9.06%; viability, T/C [23]: 7.87%; viability, T/C [29]: 7.77%; viability, T/C [31]: 27.3%; viability, T/C [32]: 17.8%; viability, T/C [33]: 12.2%; viability, T/C [34]: 9.99%; viability, T/C [35]: 8.2%; viability, T/C [37]: 33.5%; viability, T/C [38]: 18.2%; viability, T/C [39]: 14.6%; viability, T/C [40]: 9.84%; viability, T/C [41]: 9.14%; viability, T/C [42]: 3.03%
5 | O=C(c1cc(Cc2n[nH]c(=O)c3ccccc23)ccc1F)N1CCN(C(=O)C2CC2)CC1 + COc1cc2nc(C)nc(NC(C)c3cc(N)cc(C(F)(F)F)c3)c2cc1OC1CCOC1 | 2220 | 1750 | 2470 | 1740 | 84.2 | 107 | 89.7 | 78.7 | 37.3 | 77.2 | 79.2 | 81.9 | 68.5 | 30.3 | 109 | 104 | 102 | 94.6 | 37.8 | 78.4 | IC50 [36]: 719 nM; viability, T/C [17]: 20.7%; viability, T/C [23]: 15.9%; viability, T/C [29]: 18.7%; viability, T/C [31]: 77.3%; viability, T/C [32]: 76.1%; viability, T/C [33]: 66.3%; viability, T/C [34]: 32.5%; viability, T/C [35]: 18.5%; viability, T/C [37]: 99.8%; viability, T/C [38]: 61%; viability, T/C [39]: 63%; viability, T/C [40]: 56.9%; viability, T/C [41]: 25.3%; viability, T/C [42]: 14.7%
6 | CC(=O)Nc1cccc(-n2c(=O)n(C3CC3)c(=O)c3c(Nc4ccc(I)cc4F)n(C)c(=O)c(C)c32)c1 | – | – | – | – | – | – | – | – | – | – | – | – | – | – | – | – | – | – | – | – | viability, T/C (compound 0.0001 µM): 97.2% [middle of 5 runs]; viability, T/C (compound 0.000316 µM): 92.1% [middle of 5 runs]; viability, T/C (compound 0.001 µM): 75.5% [middle of 5 runs]; viability, T/C (compound 0.00316 µM): 63.5% [middle of 5 runs]; viability, T/C (compound 0.01 µM): 56.3% [middle of 5 runs]; viability, T/C (compound 0.0316 µM): 36.9% [middle of 5 runs]; IC50 (curve of compound): 11.7 nM [middle of 5 runs]
7 | O=C(c1cc(Cc2n[nH]c(=O)c3ccccc23)ccc1F)N1CCN(C(=O)C2CC2)CC1 + C=CC(=O)N1CCN(c2nc(OCC3CCCN3C)nc3c2CCN(c2cccc4cccc(C)c24)C3)CC1CC#N | 711 | 490 | 195 | < 31.6 | 61.5 | 58.4 | 56.4 | 47.5 | 25.6 | 58.8 | 56.6 | 51.2 | 44.2 | 20.2 | 47.8 | 56.3 | 47.1 | 38.8 | 19.2 | 2.26 | IC50 [1]: 1010 nM; viability, T/C [6]: 64.1%; viability, T/C [7]: 74.5%; viability, T/C [8]: 104%; viability, T/C [9]: 50.3%; viability, T/C [10]: 26.2%; viability, T/C [11]: 16.8%; viability, T/C [17]: 15.7%; viability, T/C [23]: 14.4%; viability, T/C [29]: 13.8%; viability, T/C [31]: 2.16%; viability, T/C [32]: 2.51%; viability, T/C [33]: 2.55%; viability, T/C [34]: 3.25%; viability, T/C [35]: 0.24%
8 | COc1cc(Nc2ncc3c(n2)-c2ccc(Cl)cc2C(c2c(F)cccc2OC)=NC3)ccc1C(=O)O + C=CC(=O)N1CCN(c2nc(OCC3CCCN3C)nc3c2CCN(c2cccc4cccc(C)c24)C3)CC1CC#N | < 31.6 | < 31.6 | < 31.6 | < 31.6 | 12.7 | 11.3 | 10.2 | 9.02 | 12.1 | 10.2 | 8.78 | 8.53 | 8.2 | 9.27 | 10.3 | 8.65 | 7.42 | 6.83 | 7.63 | 2.49 | IC50 [1]: < 31.6 nM; viability, T/C [6]: 13.7%; viability, T/C [7]: 11.9%; viability, T/C [8]: 11.5%; viability, T/C [9]: 9.41%; viability, T/C [10]: 11.3%; viability, T/C [11]: 10.4%; viability, T/C [17]: 10.4%; viability, T/C [23]: 9.77%; viability, T/C [29]: 6.7%; viability, T/C [31]: 2.27%; viability, T/C [32]: 1.67%; viability, T/C [33]: 0.13%; viability, T/C [34]: 0.95%; viability, T/C [35]: 0.23%
